Results on one molecule are retold here after ChEMBL document CHEMBL1671716, “Antimicrobial susceptibility patterns for recent clinical isolates of anaerobic bacteria in South Korea” (2010).

Structures are written as SMILES. Converted amounts (≈) assume the structure as drawn.

Assay [1] has as its system Clostridium perfringens. Put plainly: Antimicrobial activity against Clostridium perfringens after 48 hrs by agar dilution method. Type of assay: functional. (In general: In agar dilution the substance is mixed into plates at graded concentrations.)
Assay [2] deals with Clostridioides difficile. Put plainly: Antimicrobial activity against Clostridium difficile after 48 hrs by agar dilution method. Type of assay: functional.

As a reminder, the MIC50 is an inhibitory concentration at the 50% level, which refers to growth in some studies and to a panel of isolates in others. Read a high MIC50 as lower susceptibility. One may read the MIC90 as the lowest concentration that inhibits either 90% of growth or 90% of the strains tested, depending on the study. A higher MIC90 goes with lower susceptibility. Regarding `CN[C@H](CC(C)C)C(=O)N[C@H]1C(=O)N[C@@H](CC(N)=O)C(=O)N[C@H]2C(=O)N[C@H]3C(=O)N[C@H](C(=O)N[C@H](C(=O)O)c4cc(O)cc(O)c4-c4cc3ccc4O)[C@H](O)c3ccc(c(Cl)c3)Oc3cc2cc(c3O[C@@H]2O[C@H](CO)[C@@H](O)[C@H](O)[C@H]2O[C@H]2C[C@](C)(N)[C@H](O)[C@H](C)O2)Oc2ccc(cc2Cl)[C@H]1O` [VANCOMYCIN], the MIC50 in assay [1] and in assay [2] was 0.5 µg/mL (≈ 0.345 µM) each time. Besides, the MIC90 in assay [1] was 0.5 µg/mL (≈ 0.345 µM); in assay [2], 2 µg/mL (≈ 1.38 µM).
